Experimental findings from US9278962B2 (Cytokinetics, Inc., priority 2011, dated 2016) are described below.

In the first assay the test system is rabbit skeletal myofibrils (approximately 90% fast fibers). The assay can be described thus: Activation of fast skeletal myofibrils (PUMA coupled-enzyme ATPase assay, AC1.4). Particulars: Table 2; concentration at which the compound increased enzymatic activity by 40%; calcium at pCa25. It is filed as biochemical.
In the case of `Oc1cccc(Cc2nsc(NCc3ccc(Cl)c(Cl)c3)n2)c1` [3-[(5-{[(3,4-dichlorophenyl)methyl]amino}-1,2,4-thiadiazol-3-yl)methyl]phenol], the “Mean AC1.4” value was “D (D=>20 uM)”.

With `Oc1cccc(Cc2nsc(NCc3ccc(Cl)cc3)n2)c1` [3-[(5-{[(4-chlorophenyl)methyl]amino}-1,2,4-thiadiazol-3-yl)methyl]phenol], the “Mean AC1.4” value is given as “D (D=>20 uM)”.

Regarding `CC(C)(CNc1nc(-c2ccc(O)cc2Cl)ns1)c1ccc(F)cc1` [3-chloro-4-(5-{[2-(4-fluorophenyl)-2-methylpropyl]amino}(1,2,4-thiadiazol-3-yl))phenol], the “Mean AC1.4” value is recorded as “A (A=<1 uM)”.

Regarding `NC(=O)c1cccc(-c2nsc(NCC(=O)C3CCCCN3)n2)c1` (stereo not shown) [3-{5-[(2-oxo-2-piperidylethyl)amino]-1,2,4-thiadiazol-3-yl}benzamide], the “Mean AC1.4” value is given as “D (D=>20 uM)”.

In the case of `N#Cc1cccc(-c2nsc(NCC(=O)C3CCCCN3)n2)c1` (stereo not shown) [3-{5-[(2-oxo-2-piperidylethyl)amino]-1,2,4-thiadiazol-3-yl}benzenecarbonitrile], the “Mean AC1.4” value is on record as “D (D=>20 uM)”.

For the compound `NC(=O)c1cccc(-c2nsc(NCCc3ccccc3)n2)c1` [3-{5-[(2-phenylethyl)amino]-1,2,4-thiadiazol-3-yl}benzamide], the “Mean AC1.4” value is listed as “C (C=10-20 uM)”.

Take `NC(=O)c1cccc(-c2nsc(NCCCc3ccccc3)n2)c1` [3-{5-[(3-phenylpropyl)amino]-1,2,4-thiadiazol-3-yl}benzamide]: the “Mean AC1.4” value is “D (D=>20 uM)”.

On to `CC(C)(CNc1nc(CNCCCO)ns1)c1ccc(F)cc1` [3-{[(5-{[2-(4-fluorophenyl)-2-methylpropyl]amino}-1,2,4-thiadiazol-3-yl)methyl]amino}propan-1-ol], for which the “Mean AC1.4” value is given as “D (D=>20 uM)”.

As for `CC(C)(O)CCc1nsc(NCC(C)(C)c2ccc(F)cc2)n1` [4-(5-{[2-(4-fluorophenyl)-2-methylpropyl]amino}(1,2,4-thiadiazol-3-yl))-2-methylbutan-2-ol], the “Mean AC1.4” value was “B (B=1-10 uM)”.

`CC(C)(CNc1nc(-c2ccc(C(N)=O)cc2)ns1)c1ccc(F)cc1` [4-(5-{[2-(4-fluorophenyl)-2-methylpropyl]amino}-1,2,4-thiadiazol-3-yl)benzamide]: the “Mean AC1.4” value was “A (A=<1 uM)”.

For the compound `CC(C)(CNc1nc(-c2ccc(O)cc2)ns1)c1ccc(F)cc1` [4-(5-{[2-(4-fluorophenyl)-2-methylpropyl]amino}-1,2,4-thiadiazol-3-yl)phenol], the “Mean AC1.4” value was “A (A=<1 uM)”.

`C[C@H](CNc1nc(-c2ccc(C(N)=O)cc2)ns1)c1ccc(F)cc1` [4-(5-{[(2S)-2-(4-fluorophenyl)propyl]amino}-1,2,4-thiadiazol-3-yl)benzamide]: the “Mean AC1.4” value is “A (A=<1 uM)”.

`COc1cccc(Cc2nsc(NCCc3ccc(S(N)(=O)=O)cc3)n2)c1` [4-[2-({3-[(3-methoxyphenyl)methyl]-1,2,4-thiadiazol-5-yl}amino)ethyl]benzenesulfonamide]: the “Mean AC1.4” value is “D (D=>20 uM)”.

With `NS(=O)(=O)c1ccc(CCNc2nc(Cc3ccc(F)cc3)ns2)cc1` [4-[2-({3-[(4-fluorophenyl)methyl]-1,2,4-thiadiazol-5-yl}amino)ethyl]benzenesulfonamide], the “Mean AC1.4” value is listed as “D (D=>20 uM)”.

Turning to `Oc1ccc(CCNc2nc(Cc3ccc(F)cc3)ns2)cc1` [4-[2-({3-[(4-fluorophenyl)methyl]-1,2,4-thiadiazol-5-yl}amino)ethyl]phenol], the “Mean AC1.4” value is “D (D=>20 uM)”.

For `CC(C)(CNc1nc(Cc2ccc(O)cc2)ns1)c1ccc(Cl)cc1` [4-[(5-{[2-(4-chlorophenyl)-2-methylpropyl]amino}-1,2,4-thiadiazol-3-yl)methyl]phenol], the “Mean AC1.4” value is given as “A (A=<1 uM)”.

Turning to `CC(C)(CNc1nc(Cc2ccc(O)cc2)ns1)c1ccc(F)cc1` [4-[(5-{[2-(4-fluorophenyl)-2-methylpropyl]amino}-1,2,4-thiadiazol-3-yl)methyl]phenol], the “Mean AC1.4” value is given as “A (A=<1 uM)”.

The assay is the same for the next values; noted with them: Table 3; concentration at which the compound increased enzymatic activity by 40%; calcium at pCa25.
Regarding `NC(=O)c1ccc(-c2nnc(NCC3(c4ncccc4F)CCC3)s2)cc1` [4-(5-((1-(3-fluoropyridin-2-yl)cyclobutyl)methylamino)-1,3,4-thiadiazol-2-yl)benzamide], the “Mean AC1.4” value was “D (D=>20 uM)”.

Take `N#Cc1ccc(-c2nnc(NCC3(c4ncccc4F)CCC3)s2)cc1` [4-(5-((1-(3-fluoropyridin-2-yl)cyclobutyl)methylamino)-1,3,4-thiadiazol-2-yl)benzonitrile]: the “Mean AC1.4” value is given as “D (D=>20 uM)”.

For `NC(=O)c1ccc(Cl)c(-c2nnc(NC[C@]3(c4ncccc4F)C[C@H](F)C3)s2)c1` [4-chloro-3-(5-((3-fluoro-1-(3-fluoropyridin-2-yl)cyclobutyl)methylamino)-1,3,4-thiadiazol-2-yl)benzamide], the “Mean AC1.4” value is “A (A=<1 uM)”.

In the case of `N#Cc1ccc(Cl)c(-c2nnc(NC[C@]3(c4ncccc4F)C[C@@H](F)C3)s2)c1` [4-chloro-3-(5-(((cis)-3-fluoro-1-(3-fluoropyridin-2-yl)cyclobutyl)methylamino)-1,3,4-thiadiazol-2-yl)benzonitrile], the “Mean AC1.4” value was “B (B=1-10 uM)”.

With `N#Cc1ccc(Cl)c(-c2nnc(NC[C@]3(c4ncccc4F)C[C@H](F)C3)s2)c1` [4-chloro-3-(5-(((trans)-3-fluoro-1-(3-fIuoropyridin-2-yl)cyclobutyl)methylamino)-1,3,4-thiadiazol-2-yl)benzonitrile], the “Mean AC1.4” value was “A (A=<1 uM)”.

Take `NC(=O)c1ccc(F)c(-c2nnc(NCC3(c4ncccc4F)CCC3)s2)c1` [4-fluoro-3-(5-((1-(3-fluoropyridin-2-yl)cyclobutyl)methylamino)-1,3,4-thiadiazol-2-yl)benzamide]: the “Mean AC1.4” value is on record as “A (A=<1 uM)”.

With `N#Cc1ccc(F)c(-c2nnc(NCC3(c4ncccc4F)CCC3)s2)c1` [4-fluoro-3-(5-((1-(3-fluoropyridin-2-yl)cyclobutyl)methylamino)-1,3,4-thiadiazol-2-yl)benzonitrile], the “Mean AC1.4” value is “B (B=1-10 uM)”.

On to `NC(=O)c1ccc(F)c(-c2nnc(NC[C@]3(c4ncccc4F)C[C@H](F)C3)s2)c1` [4-fluoro-3-(5-((3-fluoro-1-(3-fluoropyridin-2-yl)cyclobutyl)methylamino)-1,3,4-thiadiazol-2-yl)benzamide], for which the “Mean AC1.4” value is reported as “A (A=<1 uM)”.

Staying with this assay, now noted: Table 4; concentration at which the compound increased enzymatic activity by 40%; calcium at pCa25.
Turning to `CC(C)(CNc1nc2c(Cl)cc(C#N)cc2s1)c1ccc(F)cc1` [4-chloro-2-(2-(4-fluorophenyl)-2-methylpropylamino)benzo[d] thiazole-6-carbonitrile], the “Mean AC1.4” value is “A (A=<1 uM)”.

As for `CC(C)(CNc1nc2c(Cl)cc(C(N)=O)cc2s1)c1ccc(F)cc1` [4-chloro-2-(2-(4-fluorophenyl)-2-methylpropylamino)benzo[d] thiazole-6-carboxamide], the “Mean AC1.4” value is reported as “A (A=<1 uM)”.

Regarding `N#Cc1cc(Cl)c2nc(NCC3(c4ncccc4F)CCC3)sc2c1` [4-chloro-2-((1-(3-fluoropyridin-2-yl)cyclobutyl)methylamino)benzo[d] thiazole-6-carbonitrile], the “Mean AC1.4” value is listed as “B (B=1-10 uM)”.

In the case of `NC(=O)c1cc(Cl)c2nc(NCC3(c4ncccc4F)CCC3)sc2c1` [4-chloro-2-((1-(3-fluoropyridin-2-yl)cyclobutyl)methylamino)benzo[d] thiazole-6-carboxamide], the “Mean AC1.4” value was “A (A=<1 uM)”.

`NC(=O)c1ccc(Cl)c2nc(NC[C@]3(c4ncccc4F)C[C@H](F)C3)sc12` [4-chloro-2-((3-fluoro-1-(3-fluoropyridin-2-yl)cyclobutyl)methylamino)benzo[d] thiazole-7-carboxamide]: the “Mean AC1.4” value was “B (B=1-10 uM)”.

`CC(C)(CNc1nc2c(Cl)cccc2s1)c1ccc(F)cc1` [4-chloro-N-(2-(4-fluorophenyl)-2-methylpropyl)benzo[d]thiazol-2-amine]: the “Mean AC1.4” value was “A (A=<1 uM)”.

`CC(C)(CNc1nc2c(C#N)cc(C(N)=O)cc2s1)c1ccc(F)cc1` [4-cyano-2-(2-(1-fluorophenyl)-2-methylpropylamino)benzo[d] thiazole-6-carboxamide]: the “Mean AC1.4” value is recorded as “A (A=<1 uM)”.

As for `N#Cc1cc(C(N)=O)cc2sc(NCC3(c4ncccc4F)CCC3)nc12` [4-cyano-2-((1-(3-fluoropyridin-2-yl)cyclobutyl)methylamino)benzo[d] thiazole-6-carboxamide], the “Mean AC1.4” value is given as “A (A=<1 uM)”.

The assay is the same for the next values; noted with them: Table 5; concentration at which the compound increased enzymatic activity by 40%; calcium at pCa25.
`Cn1nc(NC2(c3ncccc3F)CCC2)nc1-c1cc(C(N)=O)ccc1F` [4-fluoro-3-(5-(1-(3-fluoropyridin-2-yl)cyclobutylamino)-2-methyl-2H-1,2,4-triazol-3-yl)benzamide]: the “Mean AC1.4” value is listed as “D (D=>20 uM)”.

Regarding `Cn1nc(NC2(c3ncccc3F)CCC2)nc1-c1cc(C#N)ccc1F` [4-fluoro-3-(5-(1-(3-fluoropyridin-2-yl)cyclobutylamino)-2-methyl-2H-1,2,4-triazol-3-yl)benzonitrile], the “Mean AC1.4” value was “D (D=>20 uM)”.

As for `NC(=O)c1ccc(F)c(-c2nnc(NC3(c4ncccc4F)CCC3)[nH]2)c1` [4-fluoro-3-(5-(1-(3-fluoropyridin-2-yl)cyclobutylamino)-4H-1,2,4-triazol-3-yl)benzamide], the “Mean AC1.4” value was “D (D=>20 uM)”.

As for `N#Cc1ccc(F)c(-c2nnc(NC3(c4ncccc4F)CCC3)[nH]2)c1` [4-fluoro-3-(5-(1-(3-fluoropyridin-2-yl)cyclobutylamino)-4H-1,2,4-triazol-3-yl)benzonitrile], the “Mean AC1.4” value is “D (D=>20 uM)”.

Turning to `CC(C)(Nc1nnc(-c2cc(C(N)=O)ccc2F)o1)c1ccc(F)cc1` [4-fluoro-3-(5-(2-(4-fluorophenyl)propan-2-ylamino)-1,3,4-oxadiazol-2-yl)benzamide], the “Mean AC1.4” value was “C (C=10-20 uM)”.

Turning to `CC(C)(Nc1nnc(-c2cc(C#N)ccc2F)o1)c1ccc(F)cc1` [4-fluoro-3-(5-(2-(4-fluorophenyl)propan-2-ylamino)-1,3,4-oxadiazol-2-yl)benzonitrile], the “Mean AC1.4” value is on record as “D (D=>20 uM)”.

In the case of `Cn1c(NC(C)(C)c2ccc(F)cc2)nnc1-c1cc(C(N)=O)ccc1F` [4-fluoro-3-(5-(2-(4-fluorophenyl)propan-2-ylamino)-4-methyl-4H-1,2,4-triazol-3-yl)benzamide], the “Mean AC1.4” value is given as “D (D=>20 uM)”.
